Test results published in patent publication US5696239A (The Dow Chemical Company, priority 1995, dated 1997).
Values belong to the compound of their own block, whether it stands above or below them.

What was measured:
[1] = Percent complex determination, yttrium complexes (Sephadex C-25 cation exchange); assay type: physicochemical; conditions: for % Complex (10:1), Y: ligand/metal 10:1, pH 7.4
Experimental: Complexes were made by preparing a 0.0003M yttrium solution in water. (YCl3.6H2 O, 303.26 g/mole; Y(OAc)3, 12.1% H2 O). Radioactive YCl3 (Oakridge National Laboratories) was added to give the desired number of counts. Ten μl of ligand solution (at 0.03M) were added to 990 μl of the Y solution, giving a ligand-to-metal ratio of 1:1. (Ten times the amount of ligand solution was used for a 10:1 ligand to metal ratio.) The pH was then adjusted to 7.4 using microliter quantities of hydrochloric acid or sodium hydroxide. The solution was then tested for the amount of complexed yttrium using the cation exchange method given below.
(§1) A disposable 10 ml plastic (Biorad) column was filled with 1 to 2 ml of water-swelled Sephadex™ C-25 cation exchange resin. The water was pressure eluted to the top of the resin. Fifteen μl of the complex (or more if counts were low) were added to the top of the resin. This was followed by 2 ml of 4:1 (V:V) isotonic saline:conc. ammonium hydroxide solution as an eluent which was allowed to drip into a counting tube. This was also pressure eluted to the top of the resin. An additional 2 ml of the eluent were added and the column pressure eluted to remove all liquid. The dried resin was then placed in a third counting tube and the three tubes counted on a NaI well counter using a Canberra multichannel analyzer linked to a computer. The percent complex was determined by dividing the number of counts in the two elutions by the total counts in the elutions plus the column, all times 100. By this method, uncomplexed yttrium was retained on the column.

[2] = Biodistribution in a rabbit; assay type: in vivo; conditions: Y-90, ligand 10 times molar excess
Experimental: Muscle was calculated using 46% of body weight.
A rabbit was injected in the same manner as the rats with a formulation having Y-90 with Y at 3×10^-4 M and the ligand of Example 10 at 10 times molar excess.

[3] = test system: osteosarcoma in the right proximal humerus; assay: Treatment of a dog with osteosarcoma; assay type: in vivo; conditions: Sm-153 complex, ligand 300 times molar excess; I.V. 0.95 mCi Sm-153 per Kg; one week after injection
Experimental: A dog was presented with an osteosarcoma in the right proximal humerus and walked with significant lameness. A complex was prepared using the ligand of Example 10 with a Sm-153 solution. The concentration of Sm was 3×10^-4 M and the ligand was used with a 300 times molar excess. The specific activity of the Sm-153 was 30 mCi/ml. The dog was given an I.V. injection of this complex containing 0.95 mCi of Sm-153 per Kg body weight of the dog.

[4] = In vivo biodistribution of chelates in rats (% dose in organs); conditions: rat; for % Injected Dose in Liver: 2 hours after i.v. injection; for % dose in the spleen / % dose in the bone / % dose in the blood / % dose in the muscle: 2 hours; for % dose in the bone: 25 times % dose in a femur; for % dose in the blood: blood 6.5% of animal weight; for % dose in the muscle: muscle 46% of body weight
Experimental: Also samarium was injected as samarium chloride in unchelated form.
These animals were placed in cages and fed water and food ad libitum. The animals were acclimated for at least five days before use. Prior to injection of complex, the animals were placed under a heat lamp (15 to 30 minutes) to dilate the tail vein. Then, the animal was placed in a restraining cage, the tail cleaned with an alcohol swipe, and the animal injected (50 to 200 μl) via the tail vein. After injection, the animal was placed in another cage for two hours after which time the animal was sacrificed by cervical dislocation. The animal was then dissected, the parts rinsed with deionized H2 O , patted dry, and weighed into a tared counting vial. Whatever size of injection was made, at least three standards of the same material were prepared and counted with the animal parts.
Complexes were prepared by mixing a solution of ligand and metal then adjusting the pH to 7-8. The amount of metal that was complexed to ligand was determined by cation exchange chromatography. Free metal was retained by the resin, metal in the form of a complex was not.
One-hundred μl of the complexes were injected into the tail vein of three Sprague Dawley rats. Two hours after injection, the rats were killed by cervical dislocation and samples of tissues were taken. The tissues were weighed and the amount of radiation in each tissue determined by measuring the number of counts using a NaI well counter and comparing them to standards. […] The amount in bone was 25 times the % dose in a femur. The examples below differ in the ligand, amount of ligand and amount of metal used. Non-radioactive metal was used to obtain the desired ligand to metal ratios and tracer radioactive metal was used to obtain the biodistribution.

[5] = Percent complex determination, samarium complexes (Sephadex C-25 cation exchange); assay type: physicochemical; conditions: samarium
Experimental: as §1, with “100.” for “100. By this method, uncomplexed yttrium was retained on the column.”
Percent complex determination was made in the same manner as for the yttrium complex.

[6] = Complex study: percent yttrium complex after addition of excess metal (lability); assay type: physicochemical
Experimental: as §1
The 1:1 complex of yttrium with 1-(p-aminobenzyl)diethylenetriaminepentaacetic acid (ABDTPA), a well known bifunctional chelant used in the literature, and with the ligand of Example 2 (Now Ex. XVI) and Example 12 (now Ex. XVII) were prepared using the techniques described earlier. Several 100 microliter aliquots were then withdrawn into separate centrifuge tubes. Excess metal was added such that the total volume change is minimized and the time noted. One-half hour after metal addition, the percent complex was determined by the Sephadex™ C-25 method and this was compared to the original amount of complex. The percent complex versus added metal gives an indication as to the lability of the ligand-metal complex. Results are given below and are compared to the EDTA-yttrium complex.

[7] = Challenge of antibody-complex conjugates with excess DTPA (inertness); assay type: physicochemical; conditions: 1000 fold molar excess DTPA, pH 7.4, one hour; CC-46 conjugate of Y-90 complex
Experimental: The purified antibody-complexes were added to HEPES buffer (N-2-hydroxyethylpiperazine-N'-2-ethanesulfonic acid) at pH 7.4 and treated with an appropriate amount of 0.1M DTPA solution (pH 7.4) to ensure a 1000 fold molar excess of DTPA over complex attached to antibody. After one hour an aliquot was removed and the antibody-complex conjugates were separated from low molecular weight substances using gel-filtration.

[8] = Ho-166, ligand 300 times molar excess
[9] = Sm-153, ligand 10 times molar excess
[10] = Sm-153, ligand 300 times molar excess
[11] = ligand/metal ratio about 1:1 (* footnote)
[12] = metal/ligand molar ratio 250, one-half hour after metal addition
[13] = metal/ligand molar ratio 500, one-half hour after metal addition

Structure (SMILES): CC(=O)Nc1cc(C(C(=O)O)N(CC(=O)O)CC(=O)O)c(O)c(C(C(=O)O)N(CC(=O)O)CC(=O)O)c1 (stereo not shown) [Example 10, 2,6-BIS{[BIS(CARBOXYMETHYL)-AMINO](CARBOXY)METHYL}-4-(ACETAMIDO)PHENOL]
% Complex (10:1), Y [1]: 98% | activity in blood [2]: 0.68% | activity in bone [2]: 59% | activity in liver [2]: 1.1% | activity in muscle [2]: 1.5% | activity in spleen [2]: 0.19% | dog's gait [3]: noticeably improved | % Injected Dose in Liver ([4]; Ho complex, ligand 300 times molar excess): 0.26% | % dose in the spleen [4, 8]: 0.007% | % dose in the bone [4, 8]: 52.9% | % dose in the blood [4, 8]: 0.09% | % dose in the muscle [4, 8]: 1.1% | % Injected Dose in Liver ([4]; Sm complex, ligand 300 times molar excess): 0.12% | % Injected Dose in Liver ([4]; Sm complex, ligand/metal 10:1): 1.3% | % dose in the spleen [4, 9]: 0.01% | % dose in the bone [4, 9]: 48.5% | % dose in the blood [4, 9]: 0.18% | % dose in the muscle [4, 9]: 0.73% | % dose in the spleen [4, 10]: 0.005% | % dose in the bone [4, 10]: 52.7% | % dose in the blood [4, 10]: 0.05% | % dose in the muscle [4, 10]: 0.23% | % Injected Dose in Liver ([4]; Y complex, ligand/metal 10:1): 0.39%

% Complex (10:1), Y [1]: 99% | % Complex, Y [1, 11]: 98% | % Complex (10:1), Sm ([5]; ligand/metal 10:1): 98% | % Complex, Sm [5, 11]: 98% | % Complex [6, 12]: 90% | % Complex [6, 13]: 79%
Structure (SMILES): Nc1cc(CN(CCN(CC(=O)O)CC(=O)O)CC(=O)O)c(O)c(CN(CCN(CC(=O)O)CC(=O)O)CC(=O)O)c1 [Example 12]
yttrium lost from antibody-complex conjugate [7]: approximately 39%

% Complex ([6]; metal/ligand molar ratio 10, one-half hour after metal addition): 95% | % Complex [6, 12]: 87% | % Complex [6, 13]: 70%
Structure (SMILES): Nc1ccc(CC(CN(CCN(CC(=O)O)CC(=O)O)CC(=O)O)N(CC(=O)O)CC(=O)O)cc1 (stereo not shown) [ABDTPA, 1-(p-aminobenzyl)diethylenetriaminepentaacetic acid]
yttrium lost from antibody-complex conjugate [7]: over 98%
